Measurements taken from patent publication US8334312B2, “Fungicidal mixtures for wood preservation” (LANXESS Deutschland GmbH, priority 2005, dated 2012).

Tests used:
Assay in all cases: Mycelium radial growth inhibition on malt extract/peptone agar (MIC) and Kull synergism
Assay type in all cases: cell-based
Coniophora puteana = details: 26° C. agar
Description: (§1) Mycelium pieces were punched out of colonies of the wood-destroying organisms Coriolus versicolor, Poria placenta, Gloeophyllum trabeum and Cornophora puteana and incubated at 26° C. on a malt extract/peptone-containing nutrient agar. Here, the growth of the fungal threads with and without added active compound was compared. The stated minimum inhibitory concentration (MIC) is the active compound concentration at which the radial growth of the fungal threads is suppressed completely. Using the method described by Kull et al. (F. C. Kull, […]. Mayer, Applied Microbiology 9, 538 to 541, 1961), the synergism was determined. Here, the following relations apply: […]

Gloeophyllum trabeum = system: Gloeophyllum trabeum
Description: as §1

Coriolus versicolor = details: for Qb = concentration of substance B which is the MIC: b = triadimefon alone; for Qa = concentration of substance A which is the MIC: 26° C. agar
Description: as §1

Poria placenta = details: 26° C. agar
Description: as §1

## CC(C)(C)C(=O)C(Oc1ccc(Cl)cc1)n1cncn1 (racemic) [triadimefon, (±)-1-(4-chlorophenoxy)-3,3-dimethyl-1-(1H-1,2,4-triazol-1-yl)butan-2-one]
Coniophora puteana; b = triadimefon alone
  Qb = concentration of substance B which is the MIC: 30
Gloeophyllum trabeum; b = triadimefon alone, 26° C. agar
  Qb = concentration of substance B which is the MIC: 30
Coriolus versicolor; 26° C. agar (Example 2)
  Qb = concentration of substance B which is the MIC: 6
Coriolus versicolor; 26° C. agar (Example 3)
  Qb = concentration of substance B which is the MIC: 3
Poria placenta; b = triadimefon alone
  Qb = concentration of substance B which is the MIC: 3

## CC(C)(C)C(O)C(Oc1ccc(Cl)cc1)n1cncn1 (racemic) [triadimenol, (±)-1-(4-chlorophenoxy)-3,3-dimethyl-1-(1H-1,2,4-triazol-1-yl) butan-2-ole]
Gloeophyllum trabeum; a = triadimenol alone, 26° C. agar
  Qa = concentration of substance A which is the MIC: 1
Poria placenta; a = triadimenol alone
  Qa = concentration of substance A which is the MIC: 1

## CCCC1COC(Cn2cncn2)(c2ccc(Cl)cc2Cl)O1 (centres unmarked) [propiconazole]
Coriolus versicolor; a = propiconazole alone
  Qa = concentration of substance A which is the MIC: 3
Poria placenta; a = propiconazole alone
  Qa = concentration of substance A which is the MIC: 1

## CC(C)(C)C(O)(CCc1ccc(Cl)cc1)Cn1cncn1 (centres unmarked) [tebuconazole]
Coniophora puteana; a = tebuconazole alone
  Qa = concentration of substance A which is the MIC: 6
Gloeophyllum trabeum; a = tebuconazole alone, 26° C. agar (Example 3)
  Qa = concentration of substance A which is the MIC: 0.5
Gloeophyllum trabeum; b = tebuconazole alone, 26° C. agar (Example 1)
  Qb = concentration of substance B which is the MIC: 0.7
Coriolus versicolor; a = tebuconazole alone
  Qa = concentration of substance A which is the MIC: 0.3
Poria placenta; b = tebuconazole alone
  Qb = concentration of substance B which is the MIC: 1
